Measured values published in patent US20220257595A1, “MACITENTAN FOR USE IN TREATING PORTOPULMONARY HYPERTENSION” (ACTELION PHARMACEUTICALS LTD, priority 2019, published 2022).

Test system: patients with PoPH
Test: PORTICO: hepatic venous pressure gradient by hepatic vein catheterization
Format: in vivo, human
Conditions: macitentan group n=15, no TIPS
Protocol: (ii) Hemodynamic measurements—hepatic vein catheterization: HVPG, the difference between portal pressure and hepatic pressure, was measured by HVC at Baseline (Visit 1/Screening) and Week 12, or at permanent discontinuation of DB study treatment if prior to Week 12 (at the investigator's discretion). Where possible, HVPG was measured at the same time as RHC. The second measurement during the study was required to be performed within 1 week prior to EOT-DB if it was not possible to perform the HVC on the same day as the RHC. HVPG measurements were performed after at least 4 hours of fasting, at rest, in the supine position, under local anesthesia and mild sedation. A catheter introducer was placed into the right jugular vein (or femoral) using the Seldinger technique. It was used to advance a balloon-tipped catheter into the main right hepatic vein for repeated measurements of wedged (occluded) and free hepatic venous pressures. Intravascular pressures were measured using highly sensitive pressure transducers, calibrated before each measurement. HVPG was calculated as the difference between wedged and free hepatic venous pressures. […] The mean of these two measurements was considered final. […]

CCCNS(=O)(=O)Nc1ncnc(OCCOc2ncc(Br)cn2)c1-c1ccc(Br)cc1 [macitentan, N-[5-(4-Bromophenyl)-6-[2-[(5-bromo-2-pyrimidinyl)oxy]ethoxy]-4-pyrimidinyl]-N′-propylsulfamide]
HVPG (central review) mean change from baseline at Week 12: −0.5 mmHg
